According to US20260258032A1, “TYROSINE KINASE 2 INHIBITORS AND USES THEREOF” (BIOGEN MA INC., priority 2022, published 2026):
Where a name gives a salt, the structure may show the parent alone.

Assays:
JH2 domain of human Tyk2 = target: T1, JH2 domain of human Tyk2 (Homo sapiens, UniProt P29597); experiment: JH2 biochemical assay (TR-FRET probe displacement); assay type: binding; conditions: JH2 biochemical assay
T1 construct: 10×His-tagged TYK2 JH2 domain (amino acid 575-876)
Summary of the method: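 10×His-tagged human TYK2 JH2 (aa 575-876, 2 nM) incubated 60 min with 2 nM fluorescent probe, 0.1 nM Tb anti-His antibody and compound (10-point 3-fold series from […] top). TR-FRET 520/495 nm ratio, falling with probe displacement, normalized and fitted to a 4-parameter logistic for IC50.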

[1] = system: Tyk2 kinase activity on STAT4; experiment: pSTAT4 cell assay (MSD, NK92 cells); assay type: cell-based; conditions: compounds 1 hr, stimulated 15 minutes
Summary of the method: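 Serum-starved NK92 cells, which natively express Tyk2 and STAT4, were pretreated for 1 h with a 10-point 4-fold dilution series from 10 μM. They were then stimulated with 30 ng/mL IL2 for 15 min. Phospho-STAT in lysates was quantified by MSD with anti-STAT4 antibodies, and IC50 was obtained from 4-parameter logistic fits.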

T1 sequence (P29597 575-876): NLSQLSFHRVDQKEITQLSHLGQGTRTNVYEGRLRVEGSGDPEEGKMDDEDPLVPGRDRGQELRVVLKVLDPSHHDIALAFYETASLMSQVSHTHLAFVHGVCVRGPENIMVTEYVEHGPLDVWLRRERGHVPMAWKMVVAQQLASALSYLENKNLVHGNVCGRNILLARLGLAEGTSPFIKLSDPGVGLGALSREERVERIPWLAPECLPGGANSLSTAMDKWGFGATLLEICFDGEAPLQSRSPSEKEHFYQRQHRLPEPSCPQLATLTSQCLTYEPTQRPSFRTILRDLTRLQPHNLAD

Structure (SMILES)	IC50 (JH2 domain of human Tyk2) [nM]	IC50 [1] [nM]
CC(=O)Nc1cc2c(cn1)C1(CC1)CN2c1cc(C)nc(C2(C)CC2)n1 [Example 69, N-(1′-(6-methyl-2-(1-methylcyclopropyl)pyrimidin-4-yl)-1′,2′-dihydrospiro[cyclopropane-1,3′-pyrrolo[3,2-c]pyridin]-6′-yl)acetamide]	≤ 10	100 to 1000
CC(=O)Nc1cc2c(cn1)C1(CC1)CN2c1cc(C)cc(N2CCC(F)(F)C2)n1 [Example 184, N-(1′-(6-(3,3-difluoropyrrolidin-1-yl)-4-methylpyridin-2-yl)-1′,2′-dihydrospiro[cyclopropane-1,3′-pyrrolo[3,2-c]pyridin]-6′-yl)acetamide]	10 to 100	100 to 1000
COC1CC(COc2cc(C)cc(N3CC4(CC4)c4cnc(NC(C)=O)cc43)n2)C1 (centres unmarked) [Example 350, N-(1′-(6-((3-methoxycyclobutyl)methoxy)-4-methylpyridin-2-yl)-1′,2′-dihydrospiro[cyclopropane-1,3′-pyrrolo[3,2-c]pyridin]-6′-yl)acetamide]	100 to 1000	≥ 1000
CC(=O)Nc1cc2c(cn1)C1(CC1)CN2c1cc(C)cc(N2CCC(N(C)C)C2)n1 (centres unmarked) [Example 192, N-(1′-(6-(3-(dimethylamino)pyrrolidin-1-yl)-4-methylpyridin-2-yl)-1′,2′-dihydrospiro[cyclopropane-1,3′-pyrrolo[3,2-c]pyridin]-6′-yl)acetamide trifluoroacetate]	100 to 1000	≥ 1000
CC(=O)Nc1cc2c(cn1)C1(CC1)CN2c1cc(C)nc(C(F)(F)CO)n1 [Example 289, N-(1′-(2-(1,1-difluoro-2-hydroxyethyl)-6-methylpyrimidin-4-yl)-1′,2′-dihydrospiro[cyclopropane-1,3′-pyrrolo[3,2-c]pyridin]-6′-yl)acetamide]	≤ 10	10 to 100
CC(=O)Nc1cc2c(cn1)C1(CC1)CN2c1cc(NC(C)C)nc(C(C)(F)F)n1 [Example 153, N-(1′-(2-(1,1-difluoroethyl)-6-(isopropylamino)pyrimidin-4-yl)-1′,2′-dihydrospiro[cyclopropane-1,3′-pyrrolo[3,2-c]pyridin]-6′-yl)acetamide trifluoroacetate]	≤ 10	10 to 100
CC(=O)Nc1cc2c(cn1)C1(CC1)CN2c1cc(NC2CSC2)nc(C(C)(F)F)n1 [Example 166, N-(1′-(2-(1,1-difluoroethyl)-6-(thietan-3-ylamino)pyrimidin-4-yl)-1′,2′-dihydrospiro[cyclopropane-1,3′-pyrrolo[3,2-c]pyridin]-6′-yl)acetamide trifluoroacetate]	≤ 10	10 to 100
CCC(=O)Nc1cc2c(cn1)C1(CC1)CN2c1ccnc(C(C)(F)F)n1 [Example 89, N-(1′-(2-(1,1-difluoroethyl)pyrimidin-4-yl)-1′,2′-dihydrospiro[cyclopropane-1,3′-pyrrolo[3,2-c]pyridin]-6′-yl)propionamide]	≤ 10	100 to 1000
CC(=O)Nc1cc2c(cn1)C1(CC1)CN2c1cc(C)nc(N(C)C)n1 [Example 116, N-(1′-(2-(dimethylamino)-6-methylpyrimidin-4-yl)-1′,2′-dihydrospiro[cyclopropane-1,3′-pyrrolo[3,2-c]pyridin]-6′-yl)acetamide]	10 to 100	≥ 1000
CC(=O)Nc1cc2c(cn1)C1(CC1)CN2c1nc(C)nc(C)c1F [Example 67, N-(1′-(5-fluoro-2,6-dimethylpyrimidin-4-yl)-1′,2′-dihydrospiro[cyclopropane-1,3′-pyrrolo[3,2-c]pyridin]-6′-yl)acetamide]	100 to 1000	≥ 1000
